{"source": "PubChem BioAssay AID849", "about": "(SRMLSC, 2007)", "note": "Active and inactive are the calls of the source. No rule for the calls is given here.", "data": [{"system": "Saccharomyces cerevisiae lifespan shortening, growth inhibition", "experiment": "Saccharomyces cerevisiae growth inhibition potency – dose response (AID 849);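 also: yeast growth read as optical density after two days at 30 degrees C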", "values": [{"smiles": "Cc1ccccc1C(=O)NNC(=S)NC(=O)COc1ccccc1", "IC50": "46.3 µM"}, {"smiles": "COc1ccc(CCNC(=O)c2cnn3c(C(F)F)cc(C)nc23)cc1OC", "IC50": "> 100 µM (inactive)"}, {"smiles": "O=C(COc1ccccc1)NNC(=S)NC(=O)c1ccc(Cl)cc1Cl", "IC50": "31.6 µM"}, {"smiles": "CC1CCCC2(C1)NC(=S)N(c1ccccc1)N2", "note": "(centres undefined)", "IC50": "38.2 µM"}, {"smiles": "CCc1cc(-c2n[nH]c(C)c2Oc2ccc(C(C)C)cc2)c(O)cc1O", "IC50": "31.4 µM"}, {"smiles": "COc1ccc(OCCNC2CCCC2)cc1", "IC50": "> 100 µM (inactive)"}, {"smiles": "OC(Cn1cncn1)(c1ccccc1)c1ccccc1", "IC50": "13.9 µM"}, {"smiles": "COc1ccc(C(=O)NC(=S)NNC(=O)c2cnccn2)cc1OC", "IC50": "20.5 µM"}, {"smiles": "O=C1OCC(CO)(CO)N=C1NNc1cc(Cl)ccc1Cl", "IC50": "16.2 µM"}, {"smiles": "O=S(=O)(/N=C(\\Sc1ccc(Cl)cc1)c1ccccc1)c1ccccc1", "IC50": "49.2 µM"}, {"smiles": "Cc1c(Cl)cccc1N=Cc1ccc([N+](=O)[O-])s1", "IC50": "> 100 µM (inactive)"}, {"smiles": "S=C(NCc1ccc(Cl)cc1)NC12CC3CC(CC(C3)C1)C2", "IC50": "> 100 µM (inactive)"}, {"smiles": "O=c1oc2ccccc2c(O)c1/C=C1\\C=Nc2ccccc21", "IC50": "18 µM"}, {"smiles": "COc1ccc(C(=O)/C=C/Nc2ccc(C)cn2)cc1OC", "IC50": "> 100 µM (inactive)"}, {"smiles": "CCOC(=O)C(=NC(C)CC)NNc1ccc(Br)cc1", "note": "(centres undefined)", "IC50": "8.41 µM"}, {"smiles": "COc1cc(C(=O)NC(=S)NNC(=O)c2cnccn2)cc(OC)c1OC", "IC50": "12.8 µM"}, {"smiles": "c1ccc2c(c1)C(=Nn1cnnc1)c1ccccc1-2", "IC50": "> 100 µM (inactive)"}, {"smiles": "Cc1cc2c(cc(C(=O)O)n2C)s1", "IC50": "36.5 µM"}, {"smiles": "N/C(Cc1ccccc1)=N\\OC(=O)c1cccc2ccccc12", "IC50": "10.8 µM"}, {"smiles": "CCCc1ccc(OCC(=O)NNC(=S)NC(=O)c2ccco2)cc1", "IC50": "15.1 µM"}, {"smiles": "O=C1c2ccccc2NC(c2ccc(-c3cccc(Cl)c3)o2)N1O", "note": "(centres undefined)", "IC50": "35 µM"}, {"smiles": "CCOC(=O)c1c(N)sc(C(O)(C(F)(F)F)C(F)(F)F)c1-c1ccc(Cl)cc1", "IC50": "> 100 µM (inactive)"}, {"smiles": "c1ccc2nc3ccccc3nc2c1", "IC50": "16.8 µM"}, {"smiles": "O/N=C/c1cc(Cl)ccc1OCc1cccc2ccccc12", "IC50": "> 100 µM (inactive)"}, {"smiles": "CC(C)(C)c1cc(C(c2cccnc2)N2CCN(CCO)CC2)cc(C(C)(C)C)c1O", "note": "(centres undefined)", "IC50": "17.3 µM"}, {"smiles": "CCc1ccc(C2NC(=S)NC3=C2C(=O)N(c2ccccc2OC)C(c2ccc(CC)cc2)N3)cc1", "note": "(centres undefined)", "IC50": "> 100 µM (inactive)"}, {"smiles": "CC(=O)NC(=S)c1c(N)n(Cc2ccccc2)c(=O)n(C)c1=O", "IC50": "> 100 µM (inactive)"}, {"smiles": "CSC1=NSC2=NC(=O)/C(=C\\c3coc4ccccc4c3=O)C(=N)N12", "IC50": "> 100 µM (inactive)"}, {"smiles": "COc1ccc(C(=O)NC(=S)NNC(=O)c2cnccn2)cc1", "IC50": "16.3 µM"}, {"smiles": "O=C(N/N=C1\\CC2CC=CC12)c1ccc(COc2ccccc2)cc1", "note": "(centres undefined)", "IC50": "> 100 µM (inactive)"}, {"smiles": "Oc1ccc2ccccc2c1N=Nc1ccccn1", "IC50": "35.2 µM"}, {"smiles": "O=C1C2C3C=CC(CO)(O3)C2C(=O)N1c1ccccc1-c1ccccc1", "note": "(centres undefined)", "IC50": "> 100 µM (inactive)"}, {"smiles": "O=C(O)CSc1cccc[n+]1[O-]", "IC50": "33.9 µM"}, {"smiles": "Cc1cccc(Nc2nc(-c3ccccn3)cs2)n1", "IC50": "20.3 µM"}, {"smiles": "O=C(Oc1c(Cl)cc(Cl)c2cccnc12)c1cccs1", "IC50": "11.1 µM"}, {"smiles": "O=C1NC(=S)N(c2ccccc2F)C(=O)/C1=C\\c1cccs1", "IC50": "18.6 µM"}, {"smiles": "COc1ccccc1-n1c(=O)oc2ccc(Cl)cc2c1=O", "IC50": "> 100 µM (inactive)"}, {"smiles": "COc1ccc2[nH]c3c(Cl)ncnc3c2c1", "IC50": "18.5 µM"}, {"smiles": "CC1(C)C[C@H]2C=C(C=O)[C@]3(C=O)C[C@]3(C)[C@H]2C1", "IC50": "5.25 µM"}, {"smiles": "Cc1ccc(C(=O)OCn2ncc(Cl)c(Cl)c2=O)cc1", "IC50": "3.73 µM"}, {"smiles": "Oc1c(N=Nc2ccccn2)ccc2ccccc12", "IC50": "15.5 µM"}, {"smiles": "CCN(CC)N=Nc1[nH]nc2nc(C)cc(C)c12", "IC50": "7.74 µM"}, {"smiles": "Cc1nc2cc3ccccc3cc2c(=O)[nH]1", "IC50": "> 100 µM (inactive)"}, {"smiles": "O=C1ON=C(c2ccccc2)/C1=C/c1ccc(OS(=O)(=O)c2ccccc2)cc1", "IC50": "18.9 µM"}, {"smiles": "CC(Oc1ccc(Cl)cc1Cl)C(=O)NC1=NN(c2ccccc2)C(=O)C1", "note": "(centres undefined)", "IC50": "9.36 µM"}, {"smiles": "COc1ccc2c(c1)S/C(=C\\C(=O)c1ccncc1)N2C", "IC50": "5.32 µM"}, {"smiles": "COc1ccc(-c2nnc3c4ccccc4c(C)nn23)cc1", "IC50": "> 100 µM (inactive)"}, {"smiles": "NNC(=O)c1ccc(COc2cccc3ccccc23)cc1", "IC50": "30.3 µM"}, {"smiles": "O=C(/C=C/c1ccccc1)c1cc(Br)ccc(=O)c1O", "IC50": "10.1 µM"}, {"smiles": "Cc1cccc(OCCCOc2cccc3cccnc23)c1C", "IC50": "26.5 µM"}, {"smiles": "COC(=O)CSC1=NS(=O)(=O)c2ccccc21", "IC50": "> 100 µM (inactive)"}, {"smiles": "c1ccc(-c2ccc(OCCCn3cncn3)cc2)cc1", "IC50": "> 100 µM (inactive)"}, {"smiles": "O=C1Cc2ccccc2C(=O)N1CCc1ccccc1", "IC50": "> 100 µM (inactive)"}, {"smiles": "O=C(Nc1nnc(C2CC2)s1)c1ccccn1", "IC50": "42.6 µM"}, {"smiles": "CCOc1ccc(NCc2nc3ccccc3n2CCOc2ccccc2)cc1", "IC50": "> 100 µM (inactive)"}, {"smiles": "Cc1cccc(OCCN2CSC(=S)N(C)C2)c1", "IC50": "13 µM"}, {"smiles": "CC(NC(=O)Nc1ccc(Cl)cc1)C(c1cccs1)N1CCOCC1", "note": "(centres undefined)", "IC50": "> 100 µM (inactive)"}, {"smiles": "Cc1cc(N2CCN(c3cccc(C)c3C)CC2)nc(-c2ccccc2)n1", "IC50": "35.4 µM"}, {"smiles": "Oc1c(Cl)cc(Cl)cc1Sc1cc(Cl)cc(Cl)c1O", "IC50": "25.4 µM"}]}]}
